The source of these data is patent US12233106B2, “C-type natriuretic peptide variants to treat skeletal dysplasia in children” (priority 2021, dated 2025).

The nature of one data set: clinical. As to conditions: human, in vivo, 15 ug/kg. From the text: Primary endpoints include length/height Z-score at Week 52 and evaluation of any adverse events. Secondary endpoints include AGV at Week 52, Bilateral X-rays of lower extremities, Lumbar spine X-rays, DXA of whole body and spine, AUC0-∞, AUC0-t, Cmax, Tmax, t1/2, CL/F, VZ/F, Hip monitoring clinical assessments, Bayley-III, WeeFIM, and ITQOL scores, CBCL scores, Anti-vosoritide total antibody (TAb), Anti-vosoritide antibody cross-reactivity with endogenous CNP, ANP, and BNP (TAb), Anti-vosoritide neutralizing antibody (NAb), CXM and bone-specific alkaline phosphatase, Collagen type II (CTX-II), Cyclic guanosine monophosphate (cGMP), anthropometric measurements, upper to lower body segment ratio, upper arm length to lower arm (forearm) length ratio, upper leg length (thigh) to knee to heel length ratio, upper leg length (thigh) to tibial length ratio, and arm span to standing height ratio.
The pharmacokinetics of vosoritide in the different populations of patients was also analyzed for any change in PK (Table 4). PD information (plasma cGMP and serum CXM) in 4 sentinel subjects and 33 randomized subjects (aged≥24 to <60 months) receiving 30 μg/kg vosoritide was available.

The conditions of data set [1]: in vivo.
For data set [2] the following is noted: normal human; cited from earlier work.

As to `CC[C@H](C)[C@@H]1NC(=O)[C@H](CCCNC(=N)N)NC(=O)[C@H](CC(=O)O)NC(=O)[C@H](CC(C)C)NC(=O)[C@H](CCCCN)NC(=O)[C@H](CC(C)C)NC(=O)CNC(=O)[C@H](Cc2ccccc2)NC(=O)[C@@H](NC(=O)CNC(=O)[C@H](CCCCN)NC(=O)[C@H](CO)NC(=O)[C@H](CC(C)C)NC(=O)CNC(=O)[C@H](CCCCN)NC(=O)[C@H](CCCCN)NC(=O)[C@H](CC(N)=O)NC(=O)[C@H](C)NC(=O)CNC(=O)[C@H](CCCCN)NC(=O)[C@H](Cc2ccc(O)cc2)NC(=O)[C@H](CCCCN)NC(=O)[C@H](CCCNC(=N)N)NC(=O)[C@H](C)NC(=O)[C@H](CC(N)=O)NC(=O)[C@@H]2CCCN2C(=O)[C@H](Cc2c[nH]cn2)NC(=O)[C@H](CCC(=O)O)NC(=O)[C@H](CCC(N)=O)NC(=O)CNC(=O)[C@@H]2CCCN2)CSSC[C@@H](C(=O)O)NC(=O)CNC(=O)[C@H](CC(C)C)NC(=O)CNC(=O)[C@H](CO)NC(=O)[C@H](CCSC)NC(=O)[C@H](CO)NC(=O)CNC1=O` [vosoritide], in “clinical” (Mean CL/F, range over visits), the CL/F (commonly the apparent clearance, not corrected for the fraction that reaches the circulation) fell in the range of 82.1 to 150 mL/min/kg. Besides, in the data set “clinical” (Mean Vz/F, range over visits), the Vd/F (in general, the apparent distribution volume after extravascular dosing) was 2.65 to 3.8 L/kg. The Tmax – broadly, the time at which the peak concentration occurs – was 14 to 15.5 min in the data set “clinical” (Median Tmax, range over visits) and 14 min in “clinical” (sc, tmax, median [minimum, maximum]). Further, in the data set “clinical” (mean Cmax, range over visits), the Cmax (commonly the peak of the concentration-time curve) fell in the range of 3.81 to 6.86 ng/mL. For the same molecule, the half-life (commonly how long it takes for the measured level to halve) in “clinical” (mean t1/2, range over visits) was in the range of 15.2 to 29.3 min. Moreover, in data set [1], the “Adverse event of grade two or higher related to the study drug (CTCAE v5.0)” value is listed as “No patient”.
For the molecule “CNP: mature 22-amino acid C-type natriuretic peptide (wild type CNP-22)”, in data set [2], the “in vivo (plasma) half-life” value is given as 2.6 min.
